The text below walks through data of US7718645B2, “Substituted bicyclolactam compounds” (Pfizer Inc., priority 2007, dated 2010).

Usually IC50 stands for the concentration needed to halve the response being measured.

Molecules are shown by their SMILES. Read-outs that look alike come from different tables or passages of the source. A value given as a limit tells only on which side of the number the result lay.

The target in this assay is T1, Human full-length diacylglycerol:acylCoA acyltransferase 1 (DGAT-1) (Homo sapiens, UniProt O75907).
T1 construct: Human full-length diacylglycerol:acylCoA acyltransferase 1 (DGAT-1) was expressed in Sf9 insect cells; made in house; host or cells: Sf9 insect cells (baculovirus)
T1 sequence (O75907 1-488): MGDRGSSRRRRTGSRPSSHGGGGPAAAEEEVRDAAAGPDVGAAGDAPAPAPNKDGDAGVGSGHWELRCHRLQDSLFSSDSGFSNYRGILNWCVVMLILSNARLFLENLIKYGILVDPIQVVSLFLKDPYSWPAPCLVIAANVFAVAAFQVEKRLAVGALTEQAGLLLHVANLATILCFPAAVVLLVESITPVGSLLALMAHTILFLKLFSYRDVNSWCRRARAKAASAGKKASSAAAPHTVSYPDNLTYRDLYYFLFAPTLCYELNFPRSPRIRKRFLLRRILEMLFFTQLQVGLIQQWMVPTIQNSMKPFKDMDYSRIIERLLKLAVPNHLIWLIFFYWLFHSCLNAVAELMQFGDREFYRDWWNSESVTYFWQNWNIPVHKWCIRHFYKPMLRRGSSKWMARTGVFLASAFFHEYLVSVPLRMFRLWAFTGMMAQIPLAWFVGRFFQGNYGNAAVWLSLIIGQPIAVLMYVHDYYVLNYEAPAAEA
The assay is described as follows: In vitro assay for DGAT-1 inhibition ([14C]decanoylCoA, Sf9 membrane fraction). The class given is biochemical. On the procedure: Human full-length diacylglycerol:acylCoA acyltransferase 1 (DGAT-1) was expressed in Sf9 insect cells which are then lysed and a crude membrane fraction (105,000×g pellet) was prepared.
The cells were cultured as follows. Sf9 cells (20 L) were infected with 4 mL of DGAT1 Baculovirus Infected Insect Cells (BIIC) for 72 hours in a Wave Bioreactor System 20/50P (Wave Biotec/GE Healthcare).
Crude DGAT-1 microsomes were prepared as follows. Cell pellets were washed once with ice-cold Dulbecco's phosphate-buffered saline. Cells were collected in tabletop centrifuge (Beckman GS-6KR), 15 minutes, 2000×g, 4° C. Twenty (20) mL of ice-cold Microsome Buffer (MB) was added per 5 g of cell pellet. The suspension was passed through a microfluidizer 3 times (18K psi). The lysate was transferred to centrifuge tubes and centrifuged for 20 minutes at 5000×g (Beckman-Coulter, Inc. Allegra® 64R High-Speed Refrigerated Benchtop Centrifuge, F0650 rotor) at 4° C. The supernatant was transferred to Ultracentrifuge tubes and centrifuged at […] for 1 hr in a Beckman Ti-45 rotor, 4° C. The supernatant fluid was discarded. The pellet was resuspended in 70 mL of MB by sonication. The microsome concentration was determined using Bio-Rad Protein DC Protein Assay. The microsomes were filter sterilized with a 0.22 μm filter. The samples were portioned, flash frozen and stored at −80° C.
Inhibitors in DMSO were pre-incubated with membranes before initiating the DGAT-1 reaction by the addition of decanoylCoA. […] The inhibitors were present at a range of eight concentrations to generate an apparent IC50 for each compound. […] Specifically, the eight concentrations used were 10 μM, 3 μM, 1 μM, 300 nM, 100 nM, 30 nM, 10 nM and 3 nM.
The reactions were allowed to proceed for 1.5 h at room temperature and then terminated by the addition of 10 μl of HCl (0.5 M). Reaction mixtures were neutralized by the addition of 15 μl of tris(hydroxy-methyl)aminomethane (1M, pH 8.0) and then mixed by trituration with 37.5 μl of Microscint™-E (Perkin Elmer).
Where this DGAT-1 inhibition assay was performed on a compound more than once, an inhibition range is also provided for that compound.

Where [1] appears, read: Examples 17-23 table, range of repeated assays, read-out: DGAT-1 IC50 Range.
[2] abbreviates: Examples 17-23 table, read-out: DGAT-1 IC50.
[3] abbreviates: apparent IC50, eight inhibitor concentrations 10 μM to 3 nM, read-out: IC50.
The mark [4] stands for this setting: inhibition range where the assay was performed on a compound more than once, read-out: IC50 range.
Setting [5] is: Examples 24-25 table, range of repeated assays, read-out: DGAT-1 IC50 Range.
Setting [6] is: Examples 24-25 table, read-out: DGAT-1 IC50.

In the case of `Cc1cc(C2CCC(CC(=O)O)CC2)ccc1N1CCOc2ncnc(N)c2C1=O` (stereo not drawn) [Example 23, 2-(4-(4-(4-amino-5-oxo-7,8-dihydropyrimido[5,4-f][1,4]-oxazepin-6(5H)-yl)-3-methylphenyl)cyclohexyl)acetic acid], the IC50 under setting [1] was 643 to 2270 nM and the IC50 under setting [2] came out at 1410 nM. In the case of `Nc1ncnc2c1C(=O)N(c1ccc(C3=CCC(CC(=O)O)CC3)cc1)CCO2` (single isomer, unassigned; (+)) [Example 53, (+)-{4-[4-(4-Amino-5-oxo-7,8-dihydropyrimido[5,4-f][1,4]oxazepin-6(5H)-yl)phenyl]cyclohex-3-en-1-yl}acetic Acid], the IC50 is, setting by setting: under setting [3], 36.4 nM; under setting [4], 33.8 to 39.3 nM. Take `C[C@@H]1CN(c2ccc([C@H]3CC[C@H](CC(=O)O)CC3)c(F)c2)C(=O)c2c(N)ncnc2O1` [Example 25, (trans-4-{4-[(8R)-4-amino-8-methyl-5-oxo-7,8-dihydropyrimido[5,4-f][1,4]oxazepin-6(5H)-yl]-2-fluorophenyl}cyclohexyl)acetic acid]: the 50% inhibitory concentration (IC50) is 10 to 17 nM under setting [5] and 12.3 nM under setting [6]. For `Nc1ncnc2c1C(=O)N(c1ccc([C@H]3C[C@H]4C[C@@H]3C3C(C(=O)O)C34)cc1)CCO2` (mixture of isomers) [Example 57, (±)-(1R,5R,6S)-6-[4-(4-Amino-5-oxo-7,8-dihydropyrimido[5,4-f][1,4]oxazepin-6(5H)-yl)phenyl]tricyclo[3.2.1.0˜2.4˜]octane-3-carboxylic Acid], the half-inhibitory concentration (IC50) under setting [3] was determined as 34.7 nM and the IC50 under setting [4] lay within 26.7 to 58.6 nM. As for `Cc1cc(N2C[C@@H](C)Oc3ncnc(N)c3C2=O)ccc1C1CCC(CC(=O)O)CC1` (stereo partly drawn) [Example 21, (R)-2-(4-(4-(4-amino-8-methyl-5-oxo-7,8-dihydropyrimido[5,4-f][1,4]oxazepin-6(5H)-yl)-2-methylphenyl)cyclohexyl)acetic acid], the IC50 is 6.1 to 37.4 nM under setting [1] and 14.8 nM under setting [2].

Regarding `C[C@@H]1CN(c2ccc([C@H]3CC[C@@H](CC(=O)O)CC3)c(F)c2)C(=O)c2c(N)ncnc2O1` [Example 24, (cis-4-{4-[(8R)-4-amino-8-methyl-5-oxo-7,8-dihydropyrimido[5,4-f][1,4]oxazepin-6(5H)-yl]-2-fluorophenyl}cyclohexyl)acetic acid], the IC50 is 1.7 to 13.2 nM under setting [5] and 4.6 nM under setting [6]. For the compound `C[C@@H]1CN(c2ccc(C3CCC(CC(=O)O)CC3)cc2F)C(=O)c2c(N)ncnc2O1` (stereo partly drawn) [Example 22, (R)-2-(4-(4-(4-amino-8-methyl-5-oxo-7,8-dihydropyrimido[5,4-f][1,4]oxazepin-6(5H)-yl)-3-fluorophenyl)cyclohexyl)acetic acid], the half-inhibitory concentration (IC50) is, setting by setting: under setting [1], 27.9 to 34.5 nM; under setting [2], 30 nM. In the same order, the values of `Nc1ncnc2c1C(=O)N(c1ccc(C3CCC(CC(=O)O)CC3)c(Cl)c1)CCO2` (stereo not drawn) [Example 18, 2-(4-(4-(4-amino-5-oxo-7,8-dihydropyrimido[5,4-f][1,4]oxazepin-6(5H)-yl)-2-chlorophenyl)cyclohexyl)acetic acid] are 4.4 to 6.9 nM and 5.82 nM. As for `C[C@@H]1CN(c2ccc([C@H]3CC[C@H](CC(N)=O)CC3)cc2)C(=O)c2c(N)ncnc2O1` [Example 27, (Trans-4-{4-[(8R)-4-amino-8-methyl-5-oxo-7,8-dihydropyrimido[5,4-f][1,4]oxazepin-6(5H)-yl]phenyl}cyclohexyl)acetamide], the half-inhibitory concentration (IC50) is, setting by setting: under setting [3], 52.2 nM; under setting [4], 11.4 to 68.1 nM.

On to `COC(=O)C1CCC(c2ccc(N3CCOc4ncnc(N)c4C3=O)cc2)CC1` (stereo not drawn) [Example 50, 4-[4-(4-Amino-5-oxo-7,8-dihydro-5H-9-oxa-1,3,6-triaza-benzocyclohepten-6-yl)-phenyl]-cyclohexanecarboxylic Acid Methyl Ester], for which the IC50 was 47.3 nM under setting [3] and 45.2 to 49.5 nM under setting [4]. Take `C[C@H]1COc2ncnc(N)c2C(=O)N1c1ccc([C@H]2CC[C@H](CC(=O)O)CC2)cc1` [Example 5]: the IC50 under setting [3] amounted to 33.9 nM. With `Nc1ncnc2c1C(=O)N(c1ccc(C3CCC(CC(=O)O)CC3)cc1F)CCO2` (stereo not drawn) [Example 6, 2-(4-(4-(4-amino-5-oxo-7,8-dihydropyrimido[5,4-f][1,4]oxazepin-6(5H)-yl)-3-fluorophenyl)cyclohexyl)acetic Acid], the IC50 is 55.5 nM under setting [3] and 29.1 to 89.6 nM under setting [4].

With `COC(=O)C1C2C1[C@H]1C[C@@H]2C[C@@H]1c1ccc(N2CCOc3ncnc(N)c3C2=O)cc1` (stereo partly drawn) [Example 56, (1R,5R,6S)-6-[4-(4-Amino-5-oxo-7,8-dihydro-5H-9-oxa-1,3,6-triaza-benzocyclohepten-6-yl)-phenyl]-tricyclo[3.2.1.0*2,4*]octane-3-carboxylic Acid Methyl Ester], the IC50 under setting [3] is 78.3 nM. Same read-out and setting: next, `COC(=O)Cc1ccc(Oc2ccc(N3CCOc4ncnc(N)c4C3=O)cc2)cc1` [Example 54, Methyl {4-[4-(4-amino-5-oxo-7,8-dihydropyrimido[5,4-f][1,4]oxazepin-6(5H)-yl)phenoxy]phenyl}acetate]: 254 nM. In the case of `CCC1CN(c2ccc(C3CCC(CC(=O)O)CC3)cc2)C(=O)c2c(N)ncnc2O1` (stereo not drawn) [Example 13, {4-[4-(4-Amino-8-ethyl-5-oxo-7,8-dihydro-5H-9-oxa-1,3,6-triaza-benzocyclohepten-6-yl)-phenyl]-cyclohexyl}-acetic acid], the IC50 was 1330 nM under setting [3] and 1070 to 1660 nM under setting [4].

As to `CS(=O)(=O)NC(=O)C[C@H]1CC[C@H](c2ccc(N3CCOc4ncnc(N)c4C3=O)cc2)CC1` [Example 26, 2-{Trans-4-[4-(4-amino-5-oxo-7,8-dihydropyrimido[5,4-f][1,4]oxazepin-6(5H)-yl)phenyl]cyclohexyl}-N-(methylsulfonyl)acetamide], the concentration for half-maximal inhibition (IC50) under setting [3] was 44.5 nM and the IC50 under setting [4] was in the range of 34.2 to 75 nM.

Turning to `Cc1cc(N2CCOc3ncnc(N)c3C2=O)ccc1C1CCC(CC(=O)O)CC1` (stereo not drawn) [Example 20, 2-(4-(4-(4-amino-5-oxo-7,8-dihydropyrimido[5,4-f][1,4]oxazepin-6(5H)-yl)-2-methylphenyl)cyclohexyl)acetic acid], the IC50 is 8.6 to 17.2 nM under setting [1] and 13 nM under setting [2]. On to `Nc1ncnc2c1C(=O)N(c1ccc(C3CCC(C(=O)O)CC3)cc1)CCO2` (stereo not drawn) [Example 49, 4-[4-(4-Amino-5-oxo-7,8-dihydro-5H-9-oxa-1,3,6-triaza-benzocyclohepten-6-yl)-phenyl]-cyclohexanecarboxylic Acid], for which the IC50 is 7.8 nM under setting [3] and 5.8 to 10.5 nM under setting [4].

With `Nc1ncnc2c1C(=O)N(c1ccc([C@@H]3CC[C@@H]4[C@@H](CC(=O)O)CC[C@@H]43)cc1)CCO2` (racemic) [Example 55, ±{(1R,3aS,4R,6aR)4-[4-(4-Amino-5-oxo-7,8-dihydropyrimido[5,4-f][1,4]oxazepin-6(5H)-yl)phenyl]octahydropentalen-1-yl}acetic Acid], the IC50 runs as follows: under setting [3], less than 10 nM; under setting [4], 3 to 27.2 nM. `C[C@@H]1CN(c2ccc(C3CCC(CC(=O)O)CC3)c(F)c2)C(=O)c2c(N)ncnc2O1` (stereo partly drawn) [Example 17, (R)-2-(4-(4-(4-amino-8-methyl-5-oxo-7,8-dihydropyrimido[5,4-f][1,4]oxazepin-6(5H)-yl)-2-fluorophenyl)cyclohexyl)acetic acid]: the IC50 was 3 to 15.5 nM under setting [1] and less than 6.21 nM under setting [2].

Turning to `C[C@@H]1CN(c2ccc(C3CCC(CC#N)CC3)c(F)c2)C(=O)c2c(N)ncnc2O1` (stereo partly drawn) [Example 48, (R)-2-(4-(4-(4-amino-8-methyl-5-oxo-7,8-dihydropyrimido[5,4-f][1,4]oxazepin-6(5H)-yl)-2-fluorophenyl)cyclohexyl)acetonitrile], the IC50 is 12.9 nM under setting [3] and 4.5 to 22.2 nM under setting [4].
